# Article PMC10900488, “Synthesis and Evaluation of (Bis)benzyltetrahydroisoquinoline Alkaloids as Antiparasitic Agents” (JACS Au, 2024)
# Key:
# T. cruzi trypomastigotes = assay: Antitrypomastigote assay (T. cruzi), resazurin; type: cell-based, Trypanosoma (T.) cruzi; settings: Trypanosoma cruzi, 24 h, ± SD, resazurin, read-out: T. cruzi IC50 trypomastigotes
# Description: T. cruzi also assumes several cell morphologies during its lifecycle, which differ between the insect vector and mammalian host. In the latter environment, the parasite transitions between extracellular bloodstream trypomastigotes and intracellular amastigotes; both forms are clinically relevant, particularly during the acute stage of Chagas disease.[34] In this work, antitrypanosomal activity was tested against both the amastigote form (evaluated microscopically using an ex vivo intracellular model using mice macrophages) and the trypomastigote form (using the resazurin in vitro assay).[33],[35] […] In silico predictions of pharmacokinetic profiles were carried out using the SwissADME webtool (see the Supporting Information for details).[36] […]
# […] Cultivation was performed in 2% fetal calf serum supplemented RPMI-1640 medium.
# The trypomastigotes were maintained in a humidified incubator at 37 °C and with 5% CO2. […]
# (§1) Biological activity assays […]
# The half inhibitory concentration (IC50) was determined from a sigmoidal regression of the concentration-response curves generated in GraphPadPrism7. […]
# Treatment of the cells with selected compounds (serially diluted 1.2 to 150 μM) was performed in a humidified incubator in RPMI 1640 medium for 24 h at 37 °C and with 5% CO2. Resazurin (0.011% in PBS) was added subsequently to verify parasite viability. Benznidazole was used as a standard drug. The optical density was determined at 570 nm using the FilterMax F5 (Molecular Devices). […]
# [1] = system: L. mexicana promastigotes; assay: Growth studies, 24 h promastigote culture; type: cell-based, Leishmania (L.) mexicana
# Description: Preliminary investigations into the mechanism of action for compounds (S)-9a, (S)-9b and (S,R)-11 were carried out using L. mexicana promastigotes. Light microscopy-based techniques were employed to further explore compound activity in a different, related Leishmania species. […] A solvent-only control using 0.1% (v/v) DMSO led to no significant effects. Cell cultures were examined by light microscopy to identify any morphological changes resulting from compound treatment (Figure 2B). […] Cells treated with the BI and BBI compounds develop a changed morphology with a spherical cell body or shortened flagellum. This effect is observed in 25% of the population for compound (S)-9a, to a greater extent (66%) for (S)-9b, and 27% for compound (S,R)-11. An abnormal number and position of Ks and Ns were often observed, with Ks and Ns sometimes less well-defined by Hoechst 33342 staining.
# NCTC cells (6 × 10^4/well) were added to a 96-well plate. Treatments of the cells with selected compounds (serially diluted 1.5 to 200 μM) was performed in a humidified incubator for 96 h at 37 °C and with 5% CO2.
# The MTT colorimetric method was used to determine the 50% cytotoxic concentration (CC50) and the selectivity index (CC50 against NCTC cells/IC50 against amastigotes).15 […]
# […] […] Statistical significance was derived from a two-tailed T-test.
# The Graph Pad Prism 5 software was used to perform sigmoid dose-response curves for the determination of […]
# […] At 6 h and 24 h post-treatment, a 1 mL aliquot was taken for imaging. The cell cycle experiment was preformed twice independently.
# Generation of mNG::RAD51 tagged cell line
# The single-stranded DNA-binding protein RAD51, associated with DNA Repair, LmxM.28.0550 was tagged with endogenous fluorescent protein mNeonGreen (mNG) at the N-terminus. […]
# Primers for constructs and sgRNA were designed using LeishGEdit (http://www.leishGEdit.net).
# PCR was at 94 °C for 5 min, followed by 35 cycles at 94 °C (15 sec), 65 °C (15 sec), 72 °C (2 min) then finally 72 °C (1 min). […]
# [2] = system: L. infantum promastigotes; assay: Antipromastigote assay (L. infantum), MTT colorimetric; type: cell-based, Leishmania (L.) infantum; settings: Leishmania infantum; ± SD; MTT, 48 h; read-out: L. infantum IC50 promastigotes
# Description: (§2) Table 1 depicts the antileishmanial (L. infantum) activity evaluation performed against both the amastigote form (evaluated microscopically using an ex vivo intracellular model of mice macrophages) and the promastigote one (using an MTT colorimetric method).[32],[33] The cytotoxicity was evaluated against NCTC cells using an MTT colorimetric method and the selectivity index was determined using the ratio between the CC50 values (NCTC cells) and the IC50 values (amastigotes).[32] […] With respect to the substituents on the C ring, larger, hydrophobic groups conferred greater bioactivity (e.g., 9b–d), whereas small, hydrophilic groups such as a hydroxyl group afford modest to poor bioactivity.
# (§3) Leishmania (L.) infantum (MHOM/BR/1972/LD) amastigotes were obtained from golden hamsters (Mesocricetus auratus) spleens following 60-70 days of infection via differential centrifugation. The Stauber method was used to determine the number of parasites.12 […]
# Biological activity assays
# Antipromastigote Assay (L. infantum)
# L. infantum promastigotes (1 × 10^6 cells/well) were added to a 96-well plates. Treatment of the cells with selected compounds (serially diluted 0.14 to 200 μM) was performed in M199 medium supplemented with 0.25% hemin and 10% fetal bovine serum for 48 h at 24 °C. The MTT colorimetric assay was used to determine the activity (IC50) of the compounds. Miltefosine was used as a standard drug and untreated promastigotes were used as a negative control. The half inhibitory concentration (IC50) was determined from a sigmoidal regression of the concentration-response curves generated in GraphPadPrism7. […]
# L. infantum amastigotes = assay: Antiamastigote assay (L. infantum), ex vivo intracellular model of mice macrophages, microscopy; type: cell-based, Leishmania (L.) infantum; settings: Leishmania infantum, Peritoneal macrophage, 96 h, ± SD, intracellular, peritoneal macrophages, read-out: L. infantum IC50 amastigotes
# Description: as §2, §3
# Peritoneal macrophages were obtained via washing the peritoneal cavity of BALB/c mice with 10% foetal calf serum supplemented RPMI-1640 medium (pH 7.2). The macrophages were maintained in a humidified incubator at 37 °C and with 5% CO2.
# as §1
# Antiamastigote Assay (L. infantum)
# Peritoneal macrophages (1 × 10^5/well) were added to a 16-well slide chambers (NUNC) and incubated with 5% CO2 at 37 °C. The cells were subsequently infected with L. infantum amastigotes (10:1 amastigotes/macrophage) for 24 h. Treatment of the cells with selected compounds (serially diluted 1.2 to 150 μM) was performed in a humidified incubator for 96 h at 37 °C and with 5% CO2. Untreated cells were used as a negative control and miltefosine was used as a standard drug. The treated cells were fixed on slides with methanol, stained with Giemsa and observed under a light microscope.13 The infection index was used in order to determine the half inhibitory concentration (IC50) (no. infected macrophages × no. amastigotes / total no. […]
smiles,measurement,setting,value
COc1cc2c(cc1OC)[C@H](Cc1ccc(OC)c(OCc3ccccc3)c1)N(C)CC2 [(S)-9b],IC50,T. cruzi trypomastigotes,57.7 ± 2.3 µM
same,concentration sufficient to inhibit growth over 24 h,[1],50 µM
same,IC50,[2],8.6 ± 0.8 µM
same,IC50,L. infantum amastigotes,26.7 ± 2 µM
"COc1cc2c(cc1OC)[C@@H](Cc1ccc(Oc3cc(C[C@H]4c5cc(OC)c(OC)cc5CCN4C)ccc3OC)cc1)N(C)CC2 [(S,R)-11, (−)-O,O′-dimethylgrisabine]",IC50,T. cruzi trypomastigotes,2.6 ± 2.9 µM
same,potency in growth inhibition relative to (S)-9a and (S)-9b,[1],10 fold
same,IC50,[2],0.8 ± 0.01 µM
same,IC50,L. infantum amastigotes,> 150 µM
COc1cc2c(cc1OC)[C@H](Cc1ccc(Br)cc1)N(C)CC2 [(S)-9a],IC50,T. cruzi trypomastigotes,14.4 ± 5.5 µM
same,concentration sufficient to inhibit growth over 24 h,[1],50 µM
same,IC50,[2],18.4 ± 2.1 µM
same,IC50,L. infantum amastigotes,13.3 ± 0.9 µM
